Data on 27 compounds can be found in patent publication US12187684B2, “Benzimidazole derivatives as modulators of retinoid-related orphan receptor gamma (RORγ) and pharmaceutical use thereof” (Jiangsu Hengrui Medicine Co., Ltd., priority 2018, dated 2025).

In this assay the target is T1, RORγ LBD-GST tagged (Homo sapiens, UniProt P51449).
T1 construct: RORγ LBD-GST tagged (Cat No. RORC-114H, Creative Biomart); purchased Creative Biomart RORC-114H
T1 sequence (P51449 269-508 limits assumed): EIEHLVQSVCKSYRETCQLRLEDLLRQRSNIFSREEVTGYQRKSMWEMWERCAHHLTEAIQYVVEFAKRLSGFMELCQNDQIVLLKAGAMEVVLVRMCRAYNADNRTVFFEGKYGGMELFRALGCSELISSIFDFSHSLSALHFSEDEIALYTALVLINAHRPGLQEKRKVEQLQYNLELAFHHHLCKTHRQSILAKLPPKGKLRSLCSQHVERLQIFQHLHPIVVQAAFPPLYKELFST
Kind of assay: LanthaScreen TR-FRET RORγ coactivator assay. The class given is biochemical. To be noted: Fluorescein-D22 coactivator peptide, 1 hour room temperature. The text has this:
LanthaScreen TR-FRET Retinoid-Related Orphan Receptor Gamma (RORγ) Coactivator Assay Materials and Reagents • 1. […] Fluorescein-D22 coactivator peptide (Cat No. PV4386, Invitrogen) • 3. LanthaScreen™ Tb anti-GST antibody (Cat No. PV3550, Invitrogen) • 4. TR-FRET coregulatory buffer D (Cat No, PV4420, Invitrogen) • 5. DTT (Cat No. P2325, Fisher) • 6. […] Tecan Infinite M1000 plate reader (Tecan) Experimental Procedure Prepare Complete TR-FRET Coregulator Buffer D by adding 1 M DTT to TR-FRET Coregulator Buffer D to the final concentration of 5 mM DTT. Make compound dilution in Complete TR-FRET Coregulator Buffer D. Highest dose is 3 μM, 7-folder dilution for total 7 doses. Add 10 μL to each well of a 384-well plate. For the negative and positive controls, add 10 μL of Complete TR-FRET Coregulator Buffer D. Prepare RORγ LBD using Complete TR-FRET Coregulator Buffer D. The final concentration of RORγ LBD is 25 ng/reaction. Add 5 μL RORγ LBD to all the wells of the 384-well assay plate except negative wells which adding 5 μL Complete TR-FRET Coregulator Buffer D. Prepare a solution containing 0.6 μM Fluorescein-D22 and 8 nM Tb anti-GST antibody using Complete TR-FRET Coregulator Buffer D. Add 5 μL to all wells of the 384-well assay plate. Briefly and gently mix the 384-well plate on a plate shaker and incubate at room temperature protected from light for 1 hour. The plate may be sealed with a cover to minimize evaporation. Read the plate at wavelengths of 520 nm and 495 nm on Tecan Infinite M1000. IC50 values were calculated using GraphPad Prism by plotting the logarithm of compounds concentration versus percent inhibition.
As to `CCOc1ccccc1-c1c(Cl)cc2[nH]c(Cc3ccc(S(=O)(=O)CC)cc3)nc2c1Cl` [Example 16, 4,6-dichloro-5-(2-ethoxyphenyl)-2-(4-(ethylsulfonyl)benzyl)-1H-benzo[d]imidazole], the IC50 was 0.626 µM.

Consider `CCS(=O)(=O)c1ccc(C(O)c2nc3c(Cl)c(-c4ccccc4OC(F)F)c(Cl)cc3[nH]2)c(F)c1` (stereo not drawn) [Example 85, (4,6-dichloro-5-(2-(difluoromethoxy)phenyl)-1H-benzo[d]imidazol-2-yl)(4-(ethylsulfonyl)-2-fluorophenyl)methanol], for which the IC50 turned out to be 0.188 µM.

The compound `CCS(=O)(=O)c1ccc(Cc2nc3c(F)c(-c4ccccc4OC(F)(F)F)c(F)cc3[nH]2)cc1` [Example 108, 2-(4-(ethylsulfonyl)benzyl)-4,6-difluoro-5-(2-(trifluoromethoxy)phenyl)-1H-benzo[d]imidazole] returned an IC50 of 0.032 µM.

As to `O=S(=O)(CC1CC1)c1ccc(C(O)c2nc3c(Cl)c(-c4ccccc4F)c(Cl)cc3[nH]2)cc1` (stereo not drawn) [Example 75, (4-((cyclopropylmethyl)sulfonyl)phenyl)(4,6-dichloro-5-(2-fluorophenyl)-1H-benzo[d]imidazol-2-yl)methanol], the midpoint of inhibition, the IC50, lay at 0.006 µM.

`CCS(=O)(=O)c1ccc(C(O)c2nc3c(Cl)c(-c4ccccc4OC(C)C)c(Cl)cc3[nH]2)cc1` (stereo not drawn) [Example 10, (4,6-dichloro-5-(2-isopropoxyphenyl)-1H-benzo[d]imidazol-2-yl)(4-(ethylsulfonyl)phenyl)methanol]: the IC50 amounted to 0.056 µM. Against the preceding compound, the IC50 is about 9.3-fold higher.

Compound `CS(=O)(=O)c1ccc(C(O)c2nc3c(Cl)c(-c4ccccc4OC(F)(F)F)c(Cl)cc3[nH]2)cc1` (stereo not drawn) [Example 58, (4,6-dichloro-5-(2-(trifluoromethoxy)phenyl)-1H-benzo[d]imidazol-2-yl)(4-(methylsulfonyl)phenyl)methanol] displayed a half-maximal inhibitory concentration (IC50) of 0.266 µM.

On to `CC(C)Oc1ccccc1-c1cc2nc(C(CCO)c3ccc(S(=O)(=O)CC4CC4)cc3)[nH]c2cc1Cl` (single isomer, unassigned) [3-(6-chloro-5-(2-isopropoxyphenyl)-1H-benzo[d]imidazol-2-yl)-3-(4-((cyclopropylmethyl)sulfonyl)phenyl)propan-1-ol], for which the half-inhibitory concentration (IC50) is 0.787 µM.

The compound `CCS(=O)(=O)c1ccc(C(O)c2nc3c(Cl)c(-c4cc(Cl)ccc4Cl)c(Cl)cc3[nH]2)cc1` (stereo not drawn) [Example 15, (4,6-dichloro-5-(2,5-dichlorophenyl)-1H-benzo[d]imidazol-2-yl)(4-(ethylsulfonyl)phenyl)methanol] had an IC50 of 0.787 µM.

For `CCS(=O)(=O)c1ccc(C(CO)c2nc3c(F)c(-c4ccccc4OC(F)(F)F)c(F)cc3[nH]2)cc1` (stereo not drawn) [Example 109, 2-(4,6-difluoro-5-(2-(trifluoromethoxy)phenyl)-1H-benzo[d]imidazol-2-yl)-2-(4-(ethylsulfonyl)phenyl)ethanol], half-maximal inhibition (IC50) required 1.04 µM.

`CCS(=O)(=O)c1ccc(C(CC(N)=O)c2nc3c(Cl)c(N4CCC(F)(F)CC4)c(Cl)cc3[nH]2)cc1` (single isomer, unassigned) [3-(4,6-dichloro-5-(4,4-difluoropiperidin-1-yl)-1H-benzo[d]imidazol-2-yl)-3-(4-(ethylsulfonyl)phenyl)propanamide] returned an IC50 of 0.057 µM.

`O=S(=O)(CC1CC1)c1ccc(C(CCO)c2nc3cc(-c4ccccc4OC(F)F)c(Cl)cc3[nH]2)cc1` (single isomer, unassigned) [3-(6-chloro-5-(2-(difluoromethoxy)phenyl)-1H-benzo[d]imidazol-2-yl)-3-(4-((cyclopropylmethyl)sulfonyl)phenyl)propan-1-ol] came in with an IC50 of 0.081 µM. This IC50 and that of the compound before are within 1.5-fold of each other.

Consider `O=S(=O)(CC1CC1)c1ccc(C(O)c2nc3c(Cl)c(-c4ccccc4Cl)c(Cl)cc3[nH]2)cc1` (stereo not drawn) [Example 94, (4-((cyclopropylmethyl)sulfonyl)phenyl)(4,6-dichloro-5-(2-chlorophenyl)-1H-benzo[d]imidazol-2-yl)methanol], for which the IC50 came to 0.023 µM.

`COCCS(=O)(=O)c1ccc(Cc2nc3c(Cl)c(-c4ccccc4OC(F)(F)F)c(Cl)cc3[nH]2)cc1` [Example 53, 4,6-dichloro-2-(4-((2-methoxyethyl)sulfonyl)benzyl)-5-(2-(trifluoromethoxy)phenyl)-1H-benzo[d]imidazole] gave an IC50 of 0.575 µM. This IC50 lies about 25-fold higher than the previous one.

Take `CCOc1ccccc1-c1c(Cl)cc2[nH]c(C(O)c3ccc(S(=O)(=O)CC)cc3)nc2c1Cl` (stereo not drawn) [Example 18, (4,6-dichloro-5-(2-ethoxyphenyl)-1H-benzo[d]imidazol-2-yl)(4-(ethylsulfonyl)phenyl)methanol]: half-maximal inhibition (IC50) was put at 0.013 µM. This IC50 lies about 44-fold lower than the previous one.

For `CCS(=O)(=O)c1ccc(C(CO)c2nc3c(Cl)c(-c4ccccc4F)c(Cl)cc3[nH]2)cc1` (stereo not drawn) [Example 11, 2-(4,6-dichloro-5-(2-fluorophenyl)-1H-benzo[d]imidazol-2-yl)-2-(4-(ethylsulfonyl)phenyl)ethanol], the IC50 amounted to 0.242 µM.

`CCS(=O)(=O)c1ccc(Cc2nc3c(Cl)c(-c4ccccc4C(C)C)c(Cl)cc3[nH]2)cc1` [Example 36, 4,6-dichloro-2-(4-(ethylsulfonyl)benzyl)-5-(2-isopropylphenyl)-1H-benzol[d]imidazole] displayed an IC50 of 0.348 µM. The IC50 values of the last two compounds are within 1.5-fold of each other.

As for `CCS(=O)(=O)c1ccc(C(NC(C)=O)c2nc3c(Cl)c(-c4ccccc4OC(F)(F)F)c(Cl)cc3[nH]2)cc1` (stereo not drawn) [Example 44, N-((4,6-dichloro-5-(2-(trifluoromethoxy)phenyl)-1H-benzo[d]imidazol-2-yl)(4-(ethylsulfonyl)phenyl)methyl)acetamide], inhibition was half-maximal at 0.026 µM (IC50). Compared with the last compound, the IC50 is about 13-fold lower.

With `CCS(=O)(=O)c1ccc(C(CO)c2nc3c(Cl)c(-c4ccccc4OC(F)(F)F)c(Cl)cc3[nH]2)c(Cl)c1` (stereo not drawn) [Example 87, 2-(2-chloro-4-(ethylsulfonyl)phenyl)-2-(4,6-dichloro-5-(2-(trifluoromethoxy)phenyl)-1H-benzo[d]imidazol-2-yl)ethanol], the IC50 was 0.024 µM. The IC50 values of the last two compounds are within 1.5-fold of each other.

Take `CCS(=O)(=O)c1ccc(C(CO)c2nc3c(Cl)c(-c4ccsc4)c(Cl)cc3[nH]2)cc1` (stereo not drawn) [Example 25, 2-(4,6-dichloro-5-(thiophen-3-yl)-1H-benzo[d]imidazol-2-yl)-2-(4-(ethylsulfonyl)phenyl)ethanol]: the IC50 worked out at 0.789 µM.

With `CCS(=O)(=O)c1ccc(C(CO)c2nc3c(C)c(-c4ccccc4OC)c(C)cc3[nH]2)cc1` (stereo not drawn) [Example 117, 2-(4-(ethylsulfonyl)phenyl)-2-(5-(2-methoxyphenyl)-4,6-dimethyl-1H-benzo[d]imidazol-2-yl)ethanol], the IC50 turned out to be 0.149 µM.

In turn, `CCS(=O)(=O)c1ccc(C(CO)c2nc3cc(-c4ccccc4OC(F)(F)F)c(F)cc3[nH]2)cc1` (stereo not drawn) [Example 120, 2-(4-(ethylsulfonyl)phenyl)-2-(6-fluoro-5-(2-(trifluoromethoxy)phenyl)-1H-benzo[d]imidazol-2-yl)ethanol] gave a half-inhibitory concentration (IC50) of 0.321 µM.

Compound `N#Cc1ccccc1-c1c(Cl)cc2[nH]c(Cc3ccc(S(=O)(=O)CC4CC4)cc3)nc2c1Cl` [Example 95, 2-(4,6-dichloro-2-(4-((cyclopropylmethyl)sulfonyl)benzyl)-1H-benzo[d]imidazol-5-yl)benzonitrile] registered a concentration for half-maximal inhibition (IC50) of 0.065 µM.

Regarding `CCS(=O)(=O)c1ccc(Cc2nc3c(Cl)c(-c4ccccc4OC(F)(F)F)c(Cl)cc3[nH]2)c(F)c1` [Example 76, 4,6-dichloro-2-(4-(ethylsulfonyl)-2-fluorobenzyl)-5-(2-(trifluoromethoxy)phenyl)-1H-benzo[d]imidazole], the IC50 was 0.387 µM.

`CS(=O)(=O)c1ccc(C(O)c2nc3c(Cl)c(-c4ccccc4OC(F)F)c(Cl)cc3[nH]2)cc1` (stereo not drawn) [Example 49, (4,6-dichloro-5-(2-(difluoromethoxy)phenyl)-1H-benzo[d]imidazol-2-yl)(4-(methylsulfonyl)phenyl)methanol]: the IC50 was found to be 0.255 µM.

`CCS(=O)(=O)c1ccc(Cc2nc3c(Cl)c(-c4ccsc4)c(Cl)cc3[nH]2)cc1` [Example 24, 4,6-dichloro-2-(4-(ethylsulfonyl)benzyl)-5-(thiophen-3-yl)-1H-benzo[d]imidazole]: half-maximal inhibition (IC50) was put at 0.701 µM.

Take `CCCS(=O)(=O)c1ccc(C(CO)c2nc3c(Cl)c(-c4ccccc4OC(F)(F)F)c(Cl)cc3[nH]2)cc1` (stereo not drawn) [Example 51, 2-(4,6-dichloro-5-(2-(trifluoromethoxy)phenyl)-1H-benzo[d]imidazol-2-yl)-2-(4-(propylsulfonyl)phenyl)ethanol]: the half-maximal inhibitory concentration (IC50) worked out at 0.646 µM.

The compound `CCOc1ccccc1-c1c(Cl)cc2[nH]c(C(CO)c3ccc(S(=O)(=O)CC)cc3)nc2c1Cl` (stereo not drawn) [Example 17, 2-(4,6-dichloro-5-(2-ethoxyphenyl)-1H-benzo[d]imidazol-2-yl)-2-(4-(ethylsulfonyl)phenyl)ethanol] gave a concentration for half-maximal inhibition (IC50) of 0.097 µM.
